Literature values, collected in patent publication US4310517A, “Tumor-resolving and histolytic medicaments and their use” (Troponwerke GmbH & Co., KG, priority 1976, dated 1982).
Where two headings read alike, the source gives them in different places.

Test system: tumour cells

Question: What does the source list for `O=P1(N(CCCl)CCCl)NCCCO1` (centres unmarked) [cyclophosphamide]?
Answer: tumour cells destroyed (LD10 dosage): 99.999%; tumour cells destroyed (one eighth of the LD10 dose): 90%
